Experimental data from US4110472A, “Derivatives of 1-(disubstituted phenoxy)-3-amino-2-hydroxypropanes” (Bayer Aktiengesellschaft, priority 1975, dated 1978).
Where a name gives a salt, the structure may show the parent alone.

Tests used:
[1] = system: amnesia induced by electric shock; assay: Protective action against amnesia induced by electric shock in male mice; type: in vivo; details: vs propanolol and vincamine; 3 administrations at 24 h intervals, FIGS. 1-5
Source text: 1. Protective action against amnesia in male mice A modification of the method of Taber and Banuazizi (Psychopharmacol. 9, 382-91, 1966) was employed. Mice are taught to remain seated in a small compartment of a test cage and not to move into the larger compartment in which an electric shock to the foot were previously received. If a convulsive electric shock is applied to a mouse after it has been so taught, it develops amnesia and forgets the previous experience (the shock to its foot in the larger compartment),and moves from the smaller compartment into the larger compartment. By pre-treating the animals with a test substance, it is possible to determine whether these substances have any protective action against the amnesia produced. Each test substance is administered to the particular animal 3 times at intervals of 24 hours, the last administration being 1 hour before the first test. Two groups are formed for each test; a control group with amnesia and a pre-treated group. For each test group, the average value of the times which have elapsed befoe the barrier is crossed on the 2nd day is calculated. This time is taken as a criterion for the learning capacity.

cerebral blood flow [2] = assay: Increase in the cerebral blood flow in dogs (133 xenon clearance); type: in vivo; details: FIGS. 6A, 6B and 7
Source text: (§1) Increase in the cerebral blood flow in cats and dogs Cats (1.8-3.0 kg) and dogs (18-25 kg) of both sexes are rendered analgetic with fentanyl and curarized.

cerebral blood flow [3] = assay: Increase in the cerebral blood flow in cats (133 xenon clearance); details: for increase the cerebral blood flow (in words) / activity on cerebral blood flow (in words): cats; for increase the cerebral blood flow (in words): Tables 1 and 2, FIGS. 6A, 6B and 7; for action on cerebral blood flow at lower doses vs comparison substances: intravenous administration; for activity on cerebral blood flow (in words): peroral
Source text: as §1

in vivo = details: mouse
[4] = system: 7-minute complete cerebral ischaemia; assay: Restricted circulation and mortality after a transient total cerebral ischaemia (experimental apoplexy); type: in vivo
Source text: Restricted circulation and mortality after a transient total cerebral ischaemia ("experimental apoplexy")
A 7-minute complete cerebral ischaemia is caused in curarized cats by inflating a collar placed around the neck.

Row | SMILES | protective action against amnesia induced by electric shock [1] | increase the cerebral blood flow (in words) (cerebral blood flow [2]) | increase the cerebral blood flow (in words) (cerebral blood flow [3]) | action on cerebral blood flow at lower doses vs comparison substances (cerebral blood flow [3]) | activity on cerebral blood flow (in words) (cerebral blood flow [3]; at 50 and 25 mg/kg) | LD50 (in vivo; iv) [mg/kg] | LD50 (in vivo; po) [mg/kg] | restriction in the cerebral blood flow after a 7-minute cerebral ischaemia ([4]; cats, pretreated 50 mg/kg perorally) | mortality after 7-minute cerebral ischaemia (cats died) ([4]; pretreated 50 mg/kg perorally, 94% of controls died within 48 hours, significant) [%] | LD50 (in vivo; iv, mice, intravenously) [mg/kg] | LD50 (in vivo; po, mice, orally) [mg/kg] | activity on cerebral blood flow (in words) (cerebral blood flow [3]; 50 mg/kg) | activity in the experimental apoplexy test (in words) ([4]; cats)
1 | C/C=C/c1ccc(OCC)c(OCC(O)CNC(c2ccccc2)c2ccccc2)c1 (stereo not drawn) [Compound A, 1-(2-ethoxy-5-trans-propenylphenoxy)-2-hydroxy-3-diphenylmethylaminopropane hydrochloride] | considerably more effective | significantly increase | significantly increase | stronger than that of the comparison substances | distinct action | 80 | > 2000 | no restriction | 33 | – | – | – | –
2 | C/C=C/c1ccc(OCC)c(OCC(O)CNC2c3ccccc3-c3ccccc32)c1 (stereo not drawn) [Compound C, 1-(2-ethoxy-5-trans-propenylphenoxy)-2-hydroxy-3-(9-fluorenylamino)-propane] | – | significantly increase | significantly increase | stronger than that of the comparison substances | distinct action | – | – | – | – | 85 | > 2000 | – | –
3 | CN(C)CCCOC1(Cc2ccccc2)CCCCCC1 [bencyclan, reference compound] | – | – | – | – | – | – | – | – | – | 33 | > 2000 | inactive | –
4 | CC[C@]12CCCN3CCc4c(n(c5ccccc45)[C@@](O)(C(=O)OC)C1)[C@@H]32 [vincamine, reference compound] | – | – | – | – | – | – | – | – | – | 95 | 460 | – | inactive
5 | C=CCc1ccc(OCC(O)CNC(c2ccccc2)c2ccccc2)c(OC)c1.Cl (centres unmarked) [Compound B, 1-(2-methoxy-4-allylphenoxy)-2-hydroxy-3-diphenylmethylaminopropane hydrochloride] | considerably more effective | significantly increase | significantly increase | stronger than that of the comparison substances | distinct action | – | – | – | – | 43 | 450 | – | –
6 | OC(CNC(c1ccccc1)c1ccccc1)COc1ccc(Cl)c(Cl)c1 (centres unmarked) [Compound D, 1-(3,4-dichlorophenoxy)-2-hydroxy-3-diphenylmethylaminopropane] | considerably more effective | significantly increase | significantly increase | stronger than that of the comparison substances | distinct action | – | – | – | – | 76 | > 2000 | – | –
